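1) Cells in 96-well plates. 2) Compound, 48 h, 5 concentrations. 3) Linear interpolation between surrounding doses. 4) Unreached endpoint = highest concentration. GI50 is the concentration that inhibits growth by half. The concentration for full growth arrest is given as TGI.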
How the values were obtained:
Test in all cases: NCI-60 cell line screen, 48 h
T-47D breast = system: T-47D breast
HL-60(TB) leukemia = system: HL-60(TB) leukemia
OVCAR-8 ovarian = system: OVCAR-8 ovarian
CAKI-1 renal = system: CAKI-1 renal
LOX IMVI melanoma = system: LOX IMVI melanoma
MOLT-4 leukemia = system: MOLT-4 leukemia
HCC-2998 colon = system: HCC-2998 colon
M14 melanoma = system: M14 melanoma
RXF 393 renal = system: RXF 393 renal
SNB-19 CNS = system: SNB-19 CNS
TK-10 renal = system: TK-10 renal
MDA-MB-435 = system: MDA-MB-435
KM12 colon = system: KM12 colon
RPMI-8226 leukemia = system: RPMI-8226 leukemia
A549 NSCLC = system: A549 NSCLC
MDA-MB-231 breast = system: MDA-MB-231 breast
BT-549 breast = system: BT-549 breast
NCI-H23 lung = system: NCI-H23 lung
K-562 leukemia = system: K-562 leukemia
786-0 renal = system: 786-0 renal
MALME-3M melanoma = system: MALME-3M melanoma
U251 CNS = system: U251 CNS
HOP-92 NSCLC = system: HOP-92 NSCLC
COLO 205 colon = system: COLO 205 colon
SK-MEL-5 melanoma = system: SK-MEL-5 melanoma
SF-539 CNS = system: SF-539 CNS
HOP-62 NSCLC = system: HOP-62 NSCLC
SNB-75 CNS = system: SNB-75 CNS
SW-620 colon = system: SW-620 colon
ACHN renal = system: ACHN renal
SK-MEL-2 melanoma = system: SK-MEL-2 melanoma
HT29 colon = system: HT29 colon
UACC-62 melanoma = system: UACC-62 melanoma
PC-3 prostate = system: PC-3 prostate
NCI-H460 lung = system: NCI-H460 lung
HS 578T breast = system: HS 578T breast
UO-31 renal = system: UO-31 renal
NCI-H522 lung = system: NCI-H522 lung
OVCAR-4 ovarian = system: OVCAR-4 ovarian
NCI/ADR-RES ovarian = system: NCI/ADR-RES ovarian
SK-OV-3 ovarian = system: SK-OV-3 ovarian
SN12C renal = system: SN12C renal
OVCAR-3 ovarian = system: OVCAR-3 ovarian
NCI-H226 lung = system: NCI-H226 lung
IGROV1 ovarian = system: IGROV1 ovarian
SK-MEL-28 melanoma = system: SK-MEL-28 melanoma
SR leukemia = system: SR leukemia
A498 renal = system: A498 renal
MCF7 breast = system: MCF7 breast
OVCAR-5 ovarian = system: OVCAR-5 ovarian
SF-295 CNS = system: SF-295 CNS
CCRF-CEM leukemia = system: CCRF-CEM leukemia
DU-145 prostate = system: DU-145 prostate
HCT-116 colon = system: HCT-116 colon
SF-268 CNS = system: SF-268 CNS
HCT-15 colon = system: HCT-15 colon

## FC(F)(F)c1cc(NC2=NCCN=C(Nc3cc(C(F)(F)F)cc(C(F)(F)F)c3)SS2)cc(C(F)(F)F)c1
T-47D breast
  GI50: 4.22 µM
  TGI: 23.7 µM
HL-60(TB) leukemia
  GI50: 3.27 µM
  TGI: 15.8 µM
OVCAR-8 ovarian
  GI50: 3.7 µM
  TGI: 16.9 µM
CAKI-1 renal
  GI50: 3.12 µM
  TGI: 13.1 µM
LOX IMVI melanoma
  GI50: 4.59 µM
  TGI: 16.9 µM
MOLT-4 leukemia
  GI50: 4.71 µM
  TGI: 28 µM
HCC-2998 colon
  GI50: 6.15 µM
  TGI: 19.3 µM
M14 melanoma
  GI50: 6.87 µM
  TGI: 26.6 µM
RXF 393 renal
  GI50: 2.66 µM
  TGI: 11.2 µM
SNB-19 CNS
  GI50: 4.08 µM
  TGI: 15.4 µM
TK-10 renal
  GI50: 5.25 µM
  TGI: 19.8 µM
MDA-MB-435
  GI50: 3.83 µM
  TGI: 14.1 µM
KM12 colon
  GI50: 3.72 µM
  TGI: 12.3 µM
RPMI-8226 leukemia
  GI50: 2.58 µM
  TGI: 8.8 µM
A549 NSCLC
  GI50: 3.68 µM
  TGI: 17.4 µM
MDA-MB-231 breast
  GI50: 3.59 µM
  TGI: 15 µM
BT-549 breast
  GI50: 6.2 µM
  TGI: 19.1 µM
NCI-H23 lung
  GI50: 4.75 µM
  TGI: 17.4 µM
K-562 leukemia
  GI50: 3.58 µM
  TGI: 17.6 µM
786-0 renal
  GI50: 5.26 µM
  TGI: 17.7 µM
MALME-3M melanoma
  GI50: 4.12 µM
  TGI: 15.5 µM
U251 CNS
  GI50: 2.82 µM
  TGI: 10.7 µM
HOP-92 NSCLC
  GI50: 1.52 µM
  TGI: 5.01 µM
COLO 205 colon
  GI50: 3.47 µM
  TGI: 13.2 µM
SK-MEL-5 melanoma
  GI50: 3.2 µM
  TGI: 11.9 µM
SF-539 CNS
  GI50: 5.21 µM
  TGI: 18.3 µM
HOP-62 NSCLC
  GI50: 13.1 µM
  TGI: 31.3 µM
SNB-75 CNS
  GI50: 9.35 µM
  TGI: 45.6 µM
SW-620 colon
  GI50: 3.71 µM
  TGI: 14.8 µM
ACHN renal
  GI50: 2.6 µM
  TGI: 8.93 µM
SK-MEL-2 melanoma
  GI50: 4.49 µM
  TGI: 14.3 µM
HT29 colon
  GI50: 3.85 µM
  TGI: 14.1 µM
UACC-62 melanoma
  GI50: 3.55 µM
  TGI: 14.5 µM
PC-3 prostate
  GI50: 3 µM
  TGI: 12.1 µM
NCI-H460 lung
  GI50: 3.7 µM
  TGI: 14.2 µM
HS 578T breast
  GI50: 5.08 µM
  TGI: 27.6 µM
UO-31 renal
  GI50: 2.66 µM
  TGI: 11.9 µM
NCI-H522 lung
  GI50: 2.84 µM
  TGI: 10.6 µM
OVCAR-4 ovarian
  GI50: 3.65 µM
  TGI: 17 µM
NCI/ADR-RES ovarian
  GI50: 5.23 µM
  TGI: 21.5 µM
SK-OV-3 ovarian
  GI50: 8.63 µM
  TGI: 54.3 µM
SN12C renal
  GI50: 3.29 µM
  TGI: 13.1 µM
OVCAR-3 ovarian
  GI50: 2.94 µM
  TGI: 8.64 µM
NCI-H226 lung
  GI50: 3.07 µM
  TGI: 16.2 µM
IGROV1 ovarian
  GI50: 6.04 µM
  TGI: 26.3 µM
SK-MEL-28 melanoma
  GI50: 6.07 µM
  TGI: 19.4 µM
SR leukemia
  GI50: 3.76 µM
  TGI: 20.4 µM
A498 renal
  GI50: 2.24 µM
  TGI: 9.68 µM
MCF7 breast
  GI50: 2.9 µM
  TGI: 12.6 µM
OVCAR-5 ovarian
  GI50: 5.94 µM
  TGI: 19.7 µM
SF-295 CNS
  GI50: 3.08 µM
  TGI: 12.2 µM
CCRF-CEM leukemia
  GI50: 4.28 µM
  TGI: 27 µM
DU-145 prostate
  GI50: 6.24 µM
  TGI: 18.9 µM
HCT-116 colon
  GI50: 3.73 µM
  TGI: 12.5 µM
SF-268 CNS
  GI50: 5.68 µM
  TGI: 19.8 µM
HCT-15 colon
  GI50: 3.33 µM
  TGI: 14.2 µM
